Assay results reported in patent publication US4482486A, “Analogs of vasopressin” (Ceskoslovenska akademie ved, priority 1982, dated 1984).

What was measured:
Assay type in all cases: in vivo
[1] = test system: nonanaesthesized rat; test: Antidiuretic activity, nonanaesthesized rat; details: percent of the effect of [8D-argine] deaminovasopressin at the level of threshold efficiency
Method: (§1) The endocrine biological activities (in I.U./mg--International Unit--see "Handbook of Experimental Pharmacology", Vol. XXIII: Neurohypophysical hormones and similar polypeptides (B. Berde, Ed), p. 131, Springer-Verlag,Berlin 1968) of the described compounds were determined in rats.
b = nonanaesthesized rat Activity is expressed in percent of the effect o
[8D-argine] deaminovasopressin at the level of threshold efficiency

[2] = test system: rats; test: Uterotonic endocrine activity in rats; details: rat
Method: as §1

[3] = test system: rats; test: Galactogogic endocrine activity in rats; details: rat
Method: as §1

[4] = test system: rats; test: Pressor endocrine activity in rats; details: rat
Method: as §1

[5] = test system: anaesthesized rat; test: Antidiuretic activity, anaesthesized rat
Method: as §1

Molecule	Antidiuretic activity b [1]	Uterotonic activity [2]	Galactogogic activity [3]	Pressor activity [4]	Antidiuretic activity a [5]
NC(=O)CC[C@@H]1NC(=O)[C@H](Cc2ccccc2)NC(=O)[C@H](Cc2ccc(O)cc2)NC(=O)[C@@H](N)CSSC[C@@H](C(=O)N2CCC[C@H]2C(=O)N[C@@H](CCCN=C(N)N)C(=O)NCC(N)=O)NC(=O)[C@H](CC(N)=O)NC1=O [AVP, [8arginine] vasopressin, reference compound]	20%	17 I.U./mg	69 I.U./mg	465 I.U./mg	465 I.U./mg
Lactam of tyrosyl-phenylalanyl-glutaminyl-asparaginyl-S-(γ-carboxypropyl)cysteinyl-prolyl-D-arginine [Ia]	0.2%	0.09 I.U./mg	–	inhibition	0.8 I.U./mg
[8-D-Arginine, 9-desglycinamide] vasopressin [Ib]	0.4%	0.07 I.U./mg	0.12 I.U./mg	0.2 I.U./mg	4.5 I.U./mg
[8-Ornithine, 9-desglycinamide]vasopressin [Ic]	0.1%	0.09 I.U./mg	0.02 I.U./mg	0.2 I.U./mg	0.3 I.U./mg
